Results from ChEMBL document CHEMBL5053545, “Iterative Structure-Based Optimization of Short Peptides Targeting the Bacterial Sliding Clamp” (J Med Chem, 2021).
*1 amine or outer side, *2 acyl side, *3 side chain or, on linkers, in order; H or OH if unused. Where a SMILES comes first, the peptide text is derived from it. [ ]: non-standard residue; d: D form. The star is where a group is joined. NEtAsp = CCN([C@@H](CC(=O)[*:3])C(=O)[*:2])[*:1]; Acryloyl(3-(3-pyridyl),E) = O=C(/C=C/c1cccnc1)*; Gly(N-3-morpholinopropyl) = O=C(O)CNCCCN1CCOCC1; Phe(3,4-Cl2) = N[C@@H](Cc1ccc(Cl)c(Cl)c1)C(=O)O; Phe(3,4-F2) = N[C@@H](Cc1ccc(F)c(F)c1)C(=O)O; Oic = O=C(O)[C@@H]1C[C@@H]2CCCC[C@@H]2N1; Cinnamoyl(4-F) = O=C(/C=C/c1ccc(F)cc1)*; NMeCha = CN[C@@H](CC1CCCCC1)C(=O)O; X2 = O=C(CN(Cc1ccccn1)[*:1])[*:2]; NMeF = CN[C@@H](Cc1ccccc1)C(=O)O; tBuAla = CC(C)(C)C[C@H](N)C(=O)O; NFurfurylGly = O=C(O)CNCc1ccco1; NMeQ = CN[C@@H](CCC(N)=O)C(=O)O; Cha = N[C@@H](CC1CCCCC1)C(=O)O; NMeD = CN[C@@H](CC(=O)O)C(=O)O; NMeL = CN[C@@H](CC(C)C)C(=O)O; Phe(ol) = N[C@H](CO)Cc1ccccc1; NHPhenethyl = c1ccc(CCN*)cc1; X5 = CN(C)C(=NCC(=O)*)N(C)C; X4 = NC[C@H](Cc1ccccc1)N*

Tests used:
Escherichia coli [1] = experiment: Binding affinity to Escherichia coli sliding clamp assessed as gibbs free energy change by ITC analysis
Escherichia coli [2] = experiment: Binding affinity to Escherichia coli sliding clamp assessed as dissociation rate constant by ITC analysis
Escherichia coli [3] = experiment: Binding affinity to Escherichia coli sliding clamp assessed as association rate constant by ITC analysis
[4] = Binding affinity to Escherichia coli sliding clamp assessed as dissociation constant by ITC analysis

Compound | deltaG (Escherichia coli [1]) | K (Escherichia coli [2]) | K (Escherichia coli [3]) | Kd [4]
CC(C)C[C@H](NC(=O)[C@H](CC(=O)O)NC(=O)[C@H](CC1CCCCC1)NC(=O)[C@H](CCC(N)=O)NC(=O)CNCCCN1CCOCC1)C(=O)N[C@@H](Cc1ccccc1)C(=O)O (H-[Gly(N-3-morpholinopropyl)]Q[Cha]DLF-OH) | -34.7 kJ/mol | 1.4 10^-2/s | 1.8 10^4/M/s | 0.796 µM
CC(=O)N[C@@H](CCC(N)=O)C(=O)N[C@@H](CC1CCCCC1)C(=O)N[C@@H](CC(=O)O)C(=O)N[C@@H](CC(C)C)C(=O)NCC(=O)N[C@@H](Cc1ccccc1)C(=O)O (Ac-Q[Cha]DLGF-OH) | -37.2 kJ/mol | 1.1 10^-2/s | 3.2 10^4/M/s | 0.313 µM
CC(=O)N[C@@H](CCC(N)=O)C(=O)N[C@@H](CC1CCCCC1)C(=O)N[C@@H](CC(=O)O)C(=O)N(C)[C@@H](CC(C)C)C(=O)N[C@@H](Cc1ccccc1)C(=O)O (Ac-Q[Cha]D[NMeL]F-OH) | -21.8 kJ/mol |  |  | > 1 µM
CC(=O)N[C@@H](CCC(N)=O)C(=O)N[C@@H](CC1CCCCC1)C(=O)N(C)[C@@H](CC(=O)O)C(=O)N[C@@H](CC(C)C)C(=O)N1CCC[C@H]1C(=O)N[C@@H](Cc1ccc(Cl)c(Cl)c1)C(=O)O (Ac-Q[Cha][NMeD]LP[Phe(3,4-Cl2)]-OH) | -38.1 kJ/mol | 7.9 10^-3/s | 3.8 10^4/M/s | 0.231 µM
CC(C)C[C@H](NC(=O)[C@@H]1CCCN1C(=O)[C@H](CC(C)C)NC(=O)[C@H](CC(=O)O)N(C)C(=O)[C@H](CC1CCCCC1)NC(=O)[C@H](CCC(N)=O)NC(=O)/C=C/c1cccnc1)C(=O)O ({Acryloyl(3-(3-pyridyl),E)}-Q[Cha][NMeD]LPL-OH) | -38.5 kJ/mol | 1.1 10^-2/s | 6.3 10^4/M/s | 0.177 µM
CC(=O)N(C)[C@@H](CCC(N)=O)C(=O)N[C@@H](CC1CCCCC1)C(=O)N[C@@H](CC(=O)O)C(=O)N[C@@H](CC(C)C)C(=O)N[C@@H](Cc1ccccc1)C(=O)O (Ac-[NMeQ][Cha]DLF-OH) | -32.2 kJ/mol | 4.6 10^-2/s | 2.1 10^4/M/s | > 1 µM
CC(C)C[C@H](NC(=O)[C@H](CC(=O)O)NC(=O)[C@H](CC1CCCCC1)NC(=O)[C@H](CCC(N)=O)NC(=O)CNCc1ccccn1)C(=O)N[C@@H](Cc1ccccc1)C(=O)O (H-[X2]Q[Cha]DLF-OH) | -38.5 kJ/mol | 5.7 10^-3/s | 3.4 10^4/M/s | 0.172 µM
CC(C)C[C@H](NC(=O)[C@H](CC(=O)O)NC(=O)[C@H](CC1CCCCC1)NC(=O)[C@H](CCC(N)=O)NC(=O)CN=C(N(C)C)N(C)C)C(=O)N[C@@H](Cc1ccccc1)C(=O)O (X5-Q[Cha]DLF-OH) | -36.4 kJ/mol | 1.1 10^-2/s | 3.4 10^4/M/s | 0.353 µM
CC(C)C[C@H](NC(=O)[C@H](CC(=O)O)NC(=O)[C@H](CC1CCCCC1)NC(=O)[C@H](CCC(N)=O)NC(=O)CNCc1ccco1)C(=O)N[C@@H](Cc1ccccc1)C(=O)O (H-[NFurfurylGly]Q[Cha]DLF-OH) | -38.5 kJ/mol | 8.6 10^-3/s | 4.8 10^4/M/s | 0.171 µM
CC(=O)N[C@@H](CCC(N)=O)C(=O)N[C@@H](CC1CCCCC1)C(=O)N[C@@H](CC(=O)O)C(=O)N[C@@H](CC(C)C)C(=O)NCC(=O)N[C@@H](CC(C)(C)C)C(=O)O (Ac-Q[Cha]DLG[tBuAla]-OH) | -31.8 kJ/mol | 3 10^-2/s | 1.1 10^4/M/s | 2.69 µM
CC(=O)N[C@@H](CCC(N)=O)C(=O)N[C@@H](CC1CCCCC1)C(=O)N[C@@H](CC(=O)O)C(=O)N[C@@H](CC(C)C)C(=O)N(C)[C@@H](Cc1ccccc1)C(=O)O (Ac-Q[Cha]DL[NMeF]-OH) | -29.7 kJ/mol | 5.4 10^-2/s | 1 10^4/M/s | > 1 µM
CC(=O)N[C@@H](CCCNC(=N)N)C(=O)N[C@@H](CCC(N)=O)C(=O)N[C@@H](CC1CCCCC1)C(=O)N(C)[C@@H](CC(=O)O)C(=O)N[C@@H](CC(C)C)C(=O)N[C@@H](Cc1ccc(Cl)c(Cl)c1)C(=O)O (Ac-RQ[Cha][NMeD]L[Phe(3,4-Cl2)]-OH) | -37.2 kJ/mol | 2.1 10^-2/s | 7.6 10^4/M/s | 0.278 µM
CC(=O)N[C@@H](CCC(N)=O)C(=O)N[C@@H](CC1CCCCC1)C(=O)N(C)[C@@H](CC(=O)O)C(=O)N[C@@H](CC(C)C)C(=O)N[C@@H](Cc1ccc(Cl)c(Cl)c1)C(=O)O (Ac-Q[Cha][NMeD]L[Phe(3,4-Cl2)]-OH) | -42.3 kJ/mol | 1 10^-2/s | 2.7 10^5/M/s | 0.041 µM
CC(=O)N[C@@H](CCC(N)=O)C(=O)N[C@@H](CC1CCCCC1)C(=O)N[C@@H](CC(=O)O)C(=O)N[C@@H](CC(C)C)C(=O)N1[C@H](C(=O)N[C@@H](Cc2ccccc2)C(=O)O)C[C@@H]2CCCC[C@@H]21 (Ac-Q[Cha]DL[Oic]F-OH) | -39.7 kJ/mol | 7.1 10^-3/s | 5.5 10^4/M/s | 0.12 µM
CC(C)C[C@H](NC(=O)[C@H](CC(=O)O)N(C)C(=O)[C@H](CC1CCCCC1)NC(=O)[C@H](CCC(N)=O)NC(=O)/C=C/c1cccnc1)C(=O)N1[C@H](C(=O)N[C@@H](Cc2ccccc2)C(=O)O)C[C@@H]2CCCC[C@@H]21 ({Acryloyl(3-(3-pyridyl),E)}-Q[Cha][NMeD]L[Oic]F-OH) | -39.7 kJ/mol | 5.5 10^-3/s | 4.7 10^4/M/s | 0.118 µM
CC(C)C[C@H](NC(=O)[C@H](CC(=O)O)N(C)C(=O)[C@H](CC1CCCCC1)NC(=O)[C@H](CCC(N)=O)NC(=O)/C=C/c1ccc(F)cc1)C(=O)N[C@@H](Cc1ccc(F)c(F)c1)C(=O)O ({Cinnamoyl(4-F)}-Q[Cha][NMeD]L[Phe(3,4-F2)]-OH) | -40.2 kJ/mol | 5.7 10^-3/s | 5.1 10^4/M/s | 0.099 µM
CC(=O)N[C@@H](CCC(N)=O)C(=O)N[C@@H](CC1CCCCC1)C(=O)N[C@@H](CC(=O)O)C(=O)N[C@@H](CC(C)C)C(=O)N1[C@H](C(=O)N[C@@H](CC(C)C)C(=O)O)C[C@@H]2CCCC[C@@H]21 (Ac-Q[Cha]DL[Oic]L-OH) | -41.4 kJ/mol | 3.9 10^-3/s | 7.1 10^4/M/s | 0.057 µM
CC(=O)N[C@@H](CCC(N)=O)C(=O)N[C@@H](CC1CCCCC1)C(=O)N(C)[C@@H](CC(=O)O)C(=O)N[C@@H](CC(C)C)C(=O)N[C@@H](Cc1ccc(F)c(F)c1)C(=O)O (Ac-Q[Cha][NMeD]L[Phe(3,4-F2)]-OH) | -38.9 kJ/mol | 8.4 10^-3/s | 5.6 10^4/M/s | 0.148 µM
CCN(C(=O)[C@H](CC1CCCCC1)NC(=O)[C@H](CCC(N)=O)NC(C)=O)[C@@H](CC(=O)O)C(=O)N[C@@H](CC(C)C)C(=O)N[C@@H](Cc1ccccc1)C(=O)O (Ac-Q[Cha][NEtAsp]LF-OH) | -36 kJ/mol | 1.3 10^-2/s | 2.9 10^4/M/s | 0.523 µM
CC(=O)N[C@@H](CCCNC(=N)N)C(=O)N[C@@H](CCC(N)=O)C(=O)N[C@@H](CC1CCCCC1)C(=O)N[C@@H](CC(=O)O)C(=O)N[C@@H](CC(C)C)C(=O)N[C@@H](Cc1ccccc1)C(=O)O (Ac-RQ[Cha]DLF-OH) | -36 kJ/mol | 1.9 10^-2/s | 3.7 10^4/M/s | 0.498 µM
CC(=O)N[C@@H](CCC(N)=O)C(=O)N[C@@H](CC1CCCCC1)C(=O)N[C@@H](CC(=O)O)C(=O)N[C@@H](CC(C)C)C(=O)NCCc1ccccc1 (Ac-Q[Cha]DL-NHPhenethyl) | -34.3 kJ/mol | 1.8 10^-2/s | 1.9 10^4/M/s | 0.922 µM
CC(=O)N[C@@H](CCC(N)=O)C(=O)N[C@@H](CC1CCCCC1)C(=O)N[C@@H](CC(=O)O)C(=O)N[C@@H](CC(C)C)C(=O)N[C@H](CN)Cc1ccccc1 (Ac-Q[Cha]DL-X4) | -34.6 kJ/mol | 1.1 10^-2/s | 1.2 10^4/M/s | 0.877 µM
CC(=O)N[C@@H](CCC(N)=O)C(=O)N[C@@H](CC1CCCCC1)C(=O)N[C@@H](CC(=O)O)C(=O)N[C@@H](CC(C)C)C(=O)N[C@H](CO)Cc1ccccc1 (Ac-Q[Cha]DL[Phe(ol)]) | -35.1 kJ/mol | 1.9 10^-2/s | 2.6 10^4/M/s | 0.751 µM
CC(=O)N[C@@H](CCC(N)=O)C(=O)N[C@@H](CC1CCCCC1)C(=O)N[C@@H](CC(=O)O)C(=O)N[C@@H](CC(C)C)C(=O)N[C@@H](Cc1ccccc1)C(N)=O (Ac-Q[Cha]DLF-NH2) | -37.7 kJ/mol | 9.1 10^-3/s | 3.3 10^4/M/s | 0.268 µM
CC(C)C[C@H](NC(=O)[C@H](CC(=O)O)NC(=O)[C@H](CC1CCCCC1)NC(=O)[C@H](CCC(N)=O)NC(=O)/C=C/c1ccc(F)cc1)C(=O)N[C@@H](Cc1ccccc1)C(=O)O ({Cinnamoyl(4-F)}-Q[Cha]DLF-OH) | -38.9 kJ/mol | 6.3 10^-3/s | 4.6 10^4/M/s | 0.144 µM
CC(=O)N[C@@H](CCC(N)=O)C(=O)N(C)[C@@H](CC1CCCCC1)C(=O)N[C@@H](CC(=O)O)C(=O)N[C@@H](CC(C)C)C(=O)N[C@@H](Cc1ccccc1)C(=O)O (Ac-Q[NMeCha]DLF-OH) | -25.1 kJ/mol |  |  | > 1 µM
